Measured values as given in patent US6605115B1, “Method and composition for inhibiting cardiovascular cell proliferation” (Board of Trustees of the Leland Stanford Junior University, priority 1999, dated 2003).

Tests used:
[1] = tested on: human umbilical vein endothelial cells (ECV304); test: In vitro translocation of biotin-labeled peptides into endothelial cells; type: cell-based
Description: Spontaneously transformed human umbilical vein endothelial cells (ECV304, ATCC) were cultured in medium M199 (Irvine Scientific) containing 10% fetal bovine serum (FBS), 100 IU/ml penicillin and 100 μg/ml of streptomycin (Gibco BRL). Confluent cells were washed and placed in serum-free medium. After 2 hours, the cells were incubated in presence of biotin labeled peptides, as bL-R7, or bD-R7, or bL-K7 (0.1, 1.0, and 10.0 μM). After 30 minutes of incubation, cells were washed 3 times with phosphate-buffered saline (PBS), fixed in ethanol/acetone; washed in PBS; incubated for 30 minutes with peroxidase suppressor (ImmunoPure, Pierce) to block endogenous peroxidase activity; and then incubated with 5 μg/ml of horse-radish peroxidase (HRP) conjugated strepavidin (Pierce) for 30 minutes. Substrate of HRP, diaminobenzidine (DAB, Sigma), was added to the cells. The reaction was terminated by washing in distilled water after a 60-second incubation. This experiment was repeated 3 times.

cytokine-stimulated VSMC [2] = test: Effect of arginine oligomers on NO production in cytokine-stimulated VSMC (NO2, Griess); type: cell-based, rat
Description: Rat VSMCs were prepared from the media layer of thoracic aorta of Sprague-Dawley rats by the explant method. The cells were cultured in Dulbecco's modified Eagle's medium (DMEM, Gibco BRL, Gaithersburg, Md.) containing 10% fetal calf serum, 100 U/ml penicillin and 100 μg/ml streptomycin at 37° C. under a humidified atmosphere containing 5% CO2. After subconfluent growth, cells were cultured with MEM Select Amine Kit (Gibco BRL, Gaithersburg, Md.) to be treated by specific concentrations of extracellular free L-arginine. Experiments were performed using cultured cells at passage levels of 5-10.
Extracellular NO production was measured as its stable oxidative metabolite, nitrite (NO2). At the end of each incubation, samples of the medium (80 μl) were collected, and NO2 measurement was performed using the Griess reaction facilitated by a commercial calorimetric assay (Cayman Chemical, Ann Arbor, Mich.). Values of NO2 production were corrected with relative cell count assessed by a cell proliferation kit II (XTT) (Boeheringer Mannheim, Germany).
Subconfluent cells were pre-incubated with medium containing 100 μM arginine for 24 hours. The cells were then transiently pretreated with each arginine polymer for 30 minutes. After translocation, the cells were incubated with a mixture of IFN-γ (100 U/ml) and LPS (100 μg/ml) in medium containing 100 μM L-arginine for another 24 hours. In some experiments, L-NMMA (1 mM), a nitric oxide synthase inhibitor, was added to the medium.

vein grafts = test: Vein graft model: vessel morphometry 28 days after surgery; type: in vivo, New Zealand white rabbits
Description: Male New Zealand white rabbits (3.0-3.5 kg) fed standard diets were anesthetized with a mixture of ketamine (40 mg/kg) and xylazine (5 mg/kg) intramuscularly. The left external jugular vein was exposed through a longitudinal neck incision. The jugular vein was excised, gently flushed and immersed in PBS (control) or PBS containing either L-R7 (10.0 μM) or D-r7 (10.0 μM) for 30 minutes.
The right common carotid artery was exposed and clamped at the both proximal and distal ends. The treated vein segment was washed with PBS and then anastomosed in a reverse end-to-side fashion into the carotid artery, using continuous 8-0 polypropylene sutures. The common carotid artery was ligated and dissected between the two anastomoses, and the wound was closed with 3-0 nylon suture.
Vein graft segments were harvested on the 28th surgical day. Graft segments were fixed in 10% buffered formalin with gentle intraluminal pressure to maintain the physiological graft configuration. The middle portion of the paraffin samples were sectioned (5 μm) and stained with hematoxylin/eosin for light microscopic examination (FIGS. 8A-C). Three sections of each graft, taken at 0.5 mm intervals, were analyzed by planimetry by a observer blinded to the treatment group. The cross-sectional areas of the lumen, intima and media was digitized with the use of the Image Analyst program (Automatrix). The ratio of intima to media (I/M) area was calculated.

cytokine-stimulated VSMC [3] = test: Effect of arginine oligomers on NO production in cytokine-stimulated VSMC (NO2, Griess); type: cell-based, rat; conditions: exposure 5 minutes; observed for 24 hours; free L-arginine at 1 mM
vein graft segments = test: Ex vivo NOx production from vein graft harvested 3 days after surgery; type: in vivo, New Zealand white rabbits; conditions: vein grafts harvested after 3 days, absence of calcium ionophore
Description: Vein grafts were harvested 3 days after surgery, as described in Example 7. Vein graft segments were incubated in 1 me of Hanks' buffered saline solution (HBSS, Irvine Scientific) containing Ca^2+ (1.0 mM) and L-arginine (100 μM, Sigma) at 37° C. for 2 hours. NOx (nitrate and nitrite) production was measured either in the absence (basal) or presence (stimulated) of calcium ionophore (A23187, 10.0 μM, Sigma). Samples of the medium (80 μL) were collected, and NOx measurement was performed using the Griess reaction facilitated by a commercial calorimetric assay (Cayman Chemical).

iNOS protein = test: Assay for iNOS protein expression (western blotting); type: cell-based, rat; conditions: 10 μM, 30 minutes exposure, cells stimulated by IFN-γ and LPS
Description: In order to clarify the effects of arginine polymer translocation on iNOS expression, iNOS protein concentrations of rat VSMC were analyzed by western blotting. Samples were analyzed from non-stimulated cells, cells stimulated with IFN-γ (100 U/ml) and LPS (100 μg/ml), or R7 (10 μM) pretreated cells which were stimulated with IFN-γ and LPS. Treated cells were washed twice with PBS, and total cell lysates were harvested in 150 μl of lysis buffer containing 150 mM NaCl, 50 mM Tris/Cl, pH 8.0, 1% NP40, and 0.1% SDS. Samples were centrifuged for 5 minutes at 14,000 g, 4° C., to remove insoluble material, and the supernatant was collected. Protein concentrations were measured with the Lowry method. Cell lysates containing 50 μg of protein were boiled for 5 minutes and separated on an 8.0% SDS-polyacrylamide minigel. Eluted proteins were electroblotted onto nitrocellulose membrane (HyBond, Amersham, England). The blots were incubated for 1 hour in 5% non-fat dry milk/0.05% Tween® in Tris buffered saline (TBS) to block non-specific binding of the antibody. Blots were incubated for 3 hours with primary monoclonal antibodies against iNOS protein diluted 1:2,500 in TBS/Tween®. The blots were then incubated with peroxidase labeled gout anti-mouse IgG in the same buffer for 1 hour. […]

Rat aortic VSMC = test: VSMC proliferation assay (XTT); type: cell-based; conditions: 10.0 μM, 30 minutes, then growth medium 0.5% FBS for 48 hours; vs vehicle
Description: Rat aortic VSMC were grown to 50% confluence in 96-well cell culture plates. VSMC were then washed and incubated with serum free DMEM for 48 hours to obtain quiescent nondividing cells. Thereafter, VSMC were treated with vehicle, L-R7 (10.0 μM), or D-R7 (10.0 μM) for 30 minutes. After the treatment, cells were washed, and further incubated with serum containing DMEM (0.5%, FBS). Cells were harvested after 48 hours of incubation. Cell count was performed with commercial cell proliferation assay kit using spectrophotometer (XTT, Boehringer Mannheim). As a negative control, cells treated with vehicle and incubated with DSF were used. As an index of cell proliferation, the OD ratio of each treatment group to negative control group was calculated as an index of cell proliferation.

[4] = tested on: rat vascular smooth muscle cells (VSMC); test: Translocation of biotin-labeled peptides into cultured VSMC (HRP-streptavidin/DAB staining); type: cell-based; conditions: 10 μM, 30 minutes, 37° C.
Description: In the studies described below, transmembrane transport and cellular uptake of oligomers was assessed by incubating cells or tissue with biotin-oligomer conjugates, followed by treatment with horseradish peroxidase (HRP)-conjugated streptavidin and subsequent incubation with DAB (3,3′-diaminobenzidine), a substrate of the enzyme which produces a highly colored product.
Cultured VSMC (vascular smooth muscle cells) were treated, as described in Example 2, with biotinylated oligomers of arginine or lysine. After incubation, the cells were treated with HRP-streptavidin conjugate, then with DAB. Staining by the oxidation product was observed using light microscopy.
Rat VSMCs were grown on glass microscope slide chambers (Nunc Inc., Naperville, Ill.). Subconfluent cells were washed and placed in serum-free medium. After 2 hours, cells were treated with bR7, or bK7 (0.1 μM, 1.0 μM, 10 μM), at 37° C. for 30 minutes. To assess the role of endocytosis in cellular uptake of the peptides, experiments were performed at 4° C., and also in the presence of sodium azide (1.0%) for 30 minutes prior to exposure to the peptides. To assess the involvement of the basic amino acid transport system y+ in the translocation of peptides into the cell, experiments were performed in the presence of excess extracellular L-arginine (10 mM).
After 30 minutes of incubation with the peptides, cells were washed 3 times with phosphate-buffered saline (PBS), fixed for 5 minutes at −20° C. in ethanol/acetone, washed 3 times in PBS, incubated for 30 minutes with a peroxidase suppressor (ImmunoPure, Pierce, Rockford, Ill.) to block endogenous peroxidase activity and nonspecific binding, washed, and then incubated with 5 μg/ml of horseradish peroxidase (HRP) conjugated strepavidin (Pierce, Rockford, Ill.) for 30 minutes. Cells were washed 3 times with PBS, and a substrate of HRP, DAB (Sigma, St. Louis, […].), was added to the cells. The reaction was terminated by washing in distilled water after a 60-second incubation with DAB. Cell preparations were observed by conventional light microscopy (see FIG. 1). This experimental protocol was repeated 3 times.

jugular vein segments = test: Ex vivo translocation study, jugular vein segments; set-up: species or system New Zealand white rabbits; conditions: 10 μM, 30 minutes
Description: (§1) After incubation with biotin labeled oligomer, vascular segments were washed, then frozen in OCT compound (Miles Scientific). Frozen sections, 5 μm thick, were fixed with acetone for 10 minutes. Internalized biotin was detected using the staining procedure described in Example 2. Methyl green was used for nuclear counter staining.
(§2) To quantify the efficiency of nuclear translocation, the numbers of both DAB positive nuclei and total nuclei were counted in the intima and media separately at ×400 magnification with a video image analysis system (Automatrix). The frequency of nuclear translocation was expressed as the percent staining of nuclei, defined as the ratio of the number of DAB positive nuclei to that of all nuclei, in the intima and media. Each protocol was repeated 4 times.
Both carotid artery and jugular vein segments of male New Zealand white rabbits were used. To test the dose dependence of R7 translocation, vascular segments were incubated for 30 minutes with either bL-R7 or bD-R7 solution (0.1, 1.0, and 10.0 μM) in serum-free Dulbecco's minimal essential medium (DMEM) (Gibco BRL). To test the incubation time dependence, vascular segments were incubated with 10.0 μM of biotin labeled R7 solution for 10 seconds, 60 seconds, 5 minutes, 10 minutes, and 30 minutes. […]

[5] = tested on: rabbit carotid artery segment; test: Ex vivo translocation study, carotid artery segments; set-up: species or system New Zealand white rabbits; conditions: carotid artery, 10.0 μM, 30 minutes
Description: as §1, §2
Both carotid artery and jugular vein segments of male New Zealand white rabbits were used. To test the dose dependence of R7 translocation, vascular segments were incubated for 30 minutes with either bL-R7 or bD-R7 solution (0.1, 1.0, and 10.0 μM) in serum-free Dulbecco's minimal essential medium (DMEM) (Gibco BRL). To test the incubation time dependence, vascular segments were incubated with 10.0 μM of biotin labeled R7 solution for 10 seconds, 60 seconds, 5 minutes, 10 minutes, and 30 minutes. Furthermore, to determine the ability of R7 to penetrate through the vessel wall, vascular segments were ligated one end, R7 containing medium was instilled, and the other end ligated so as to expose only the luminal surface to R7. The luminal surface of the vascular segment was exposed to bL-R7 or bD-R7 (10.0 μM) for 30 minutes. To test the temperature dependence of translocation, vascular segments were incubated with 10.0 μM of biotin labeled R7 solutions at 37° C. or 4° C. To determine the disappearance time course of translocated R7, vascular segments were incubated with biotin labeled R7 solutions (10.0 μM) at 37° C. for 30 minutes, and then reincubated in DMEM with 10% FBS up to 5 days. Vascular segments were harvested at 1, 2 and 5 days after initial incubation.

Substance: hepta-L-arginine [R7]
- translocation across cytoplasmic and nuclear membranes ([1]; VSMC and endothelial cells in culture): very efficient at translocating across both cytoplasmic and nuclear membranes
- elevation of NO production (cytokine-stimulated VSMC [2]; R7 10 μM pretreatment, free L-arginine up to 1 mM): significant elevation of NO production
- NO production (cytokine-stimulated VSMC [2]; pretreatment 30 minutes, then IFN-γ and LPS, 100 μM extracellular L-arginine): dose-dependent increases in NO production at doses as low as 10 μM
- degree of enhancement of NO production (cytokine-stimulated VSMC [2]; pretreatment 30 minutes, vs. vehicle treated cytokine-stimulated cells): 24±3.8%
- myointima formation (vein grafts): substantially less myointima formation
- intima/media ratio (I/M) (vein grafts; 10.0 μM): 0.4±0.2
- intimal area (vein grafts; 10.0 μM, 30 minutes immersion): 0.5±0.2 mm^2
- reduction of intimal area (vein grafts; 10.0 μM, vs control): more than 70%
- NO biosynthesis after 5 minutes exposure (cytokine-stimulated VSMC [3]): sustained increase in NO biosynthesis
- Basal NOx production (vein graft segments): 80±14 nM/mg tissue/hr
- expression levels of iNOS (iNOS protein): no effect on the expression levels of iNOS
- VSMC proliferation (Rat aortic VSMC): significantly inhibited

Substance: biotin-labeled heptalysine [bK7, reference compound]
- internalized biotin signals ([1]; endothelial cells, 0.1, 1.0, and 10.0 μM, 30 minutes): No internalized biotin signals were detected
- internalized biotin signal (staining) [4]: no internalized biotin signal was observed
- biotin staining pattern (jugular vein segments): no stained cells were apparent
- biotin signal in vascular cells [5]: no stained cells were apparent
